Data from ChEMBL document CHEMBL4808230, “Neuroprotective effects of 2-heptyl-3-hydroxy-4-quinolone in HT22 mouse hippocampal neuronal cells” (2021).
Activity calls are given as the source filed them. No cut-off for these calls is given here.

Columns and labels:
HT-22 [1] = experiment: Neuroprotective activity against glutamate-induced cytotoxicity in mouse HT-22 cells assessed as increase in cell viability at 0.6 uM in presence of glutamate by calcein-AM dye/propidium iodide staining based microscopic analysis; type: functional
HT-22 [2] = experiment: Neuroprotective activity against glutamate-induced cytotoxicity in mouse HT-22 cells assessed as increase in cell viability at 1.85 to 5.5 uM in presence of glutamate by calcein-AM dye/propidium iodide staining based microscopic analysis; type: functional; conditions: dose 1.85-5.5 µM
HT-22 [3] = experiment: Inhibition of glutamate-induced oxidative stress in mouse HT-22 cells assessed as reduction in intracellular ROS accumulation at 0.2 to 1.8 uM in presence of glutamate by FACS analysis; type: functional, cell-based; conditions: dose 0.2-1.8 µM
HT-22 [4] = experiment: Inhibition of glutamate-induced oxidative stress in mouse HT-22 cells assessed as reduction in intracellular ROS accumulation at 0.2 to 3.6 uM in presence of glutamate by DCF-DA staining based fluorescence microscopic analysis; type: functional, cell-based; conditions: dose 0.2-3.6 µM
HT-22 [5] = experiment: Inhibition of glutamate-induced Ca2+ influx in mouse HT-22 cells assessed as reduction in intracellular Ca2+ concentration in presence of glutamate by Fluo3-AM staining based fluorescence microscopic method; type: functional, cell-based; conditions: dose 0.6-1.8 µM
[6] = biological target: c-Jun N-terminal kinase (Mus musculus) (UniProt Q91Y86+Q9WTU6+Q61831); experiment: Inhibition of glutamate-induced JNK activation in mouse HT-22 cells assessed as reduction in phosphorylated JNK protein level at 1 to 10 uM in presence of glutamate by Western blot analysis; type: cell-based; conditions: dose 1-10 µM
Chain of c-Jun N-terminal kinase (Mus musculus) (Q61831 whole entry, looked up): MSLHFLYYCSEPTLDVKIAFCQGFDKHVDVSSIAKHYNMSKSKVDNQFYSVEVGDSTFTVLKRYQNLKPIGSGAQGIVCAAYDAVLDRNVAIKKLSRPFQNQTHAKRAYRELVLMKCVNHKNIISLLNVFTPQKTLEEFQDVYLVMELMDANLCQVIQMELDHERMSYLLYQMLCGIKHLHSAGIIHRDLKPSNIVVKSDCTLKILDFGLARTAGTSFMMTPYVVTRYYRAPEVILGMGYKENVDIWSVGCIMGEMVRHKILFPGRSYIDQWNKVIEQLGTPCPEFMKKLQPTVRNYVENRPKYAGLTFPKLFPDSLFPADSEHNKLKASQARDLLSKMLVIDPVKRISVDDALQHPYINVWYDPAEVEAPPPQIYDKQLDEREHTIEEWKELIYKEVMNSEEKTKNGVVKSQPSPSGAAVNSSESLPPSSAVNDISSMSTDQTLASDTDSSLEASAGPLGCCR
Chain of c-Jun N-terminal kinase (Mus musculus) (Q91Y86 whole entry, looked up): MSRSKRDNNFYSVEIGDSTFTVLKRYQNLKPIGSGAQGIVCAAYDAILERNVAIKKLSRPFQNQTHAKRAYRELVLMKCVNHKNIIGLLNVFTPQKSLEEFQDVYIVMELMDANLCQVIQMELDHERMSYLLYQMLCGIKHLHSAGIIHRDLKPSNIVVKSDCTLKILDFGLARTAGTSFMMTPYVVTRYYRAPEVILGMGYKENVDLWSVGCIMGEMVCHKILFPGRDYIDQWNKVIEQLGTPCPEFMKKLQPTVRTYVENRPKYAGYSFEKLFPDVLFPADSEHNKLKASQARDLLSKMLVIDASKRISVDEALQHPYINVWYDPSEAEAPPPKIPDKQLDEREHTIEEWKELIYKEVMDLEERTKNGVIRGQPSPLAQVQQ
Chain of c-Jun N-terminal kinase (Mus musculus) (Q9WTU6 whole entry, looked up): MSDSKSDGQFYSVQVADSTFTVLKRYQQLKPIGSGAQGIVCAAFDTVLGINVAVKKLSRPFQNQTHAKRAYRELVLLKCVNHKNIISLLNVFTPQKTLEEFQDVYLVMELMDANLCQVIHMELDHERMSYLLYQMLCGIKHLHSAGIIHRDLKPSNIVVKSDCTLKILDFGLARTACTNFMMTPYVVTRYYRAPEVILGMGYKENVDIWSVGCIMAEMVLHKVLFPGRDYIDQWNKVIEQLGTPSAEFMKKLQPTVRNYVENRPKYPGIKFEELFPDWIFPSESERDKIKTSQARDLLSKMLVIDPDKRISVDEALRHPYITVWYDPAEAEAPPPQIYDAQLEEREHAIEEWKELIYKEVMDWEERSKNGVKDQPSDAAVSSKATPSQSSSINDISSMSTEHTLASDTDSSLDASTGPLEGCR

HT-22 [7] = experiment: Inhibition of glutamate-induced ERK activation in mouse HT-22 cells assessed as reduction in phosphorylated ERK protein level at 1 to 10 uM in presence of glutamate by Western blot analysis; type: cell-based; conditions: dose 1-10 µM
[8] = biological target: MAP kinase p38 (Mus musculus) (UniProt P47811+O08911+Q9WUI1+Q9Z1B7); experiment: Inhibition of glutamate-induced p38 MAPK activation in mouse HT-22 cells assessed as reduction in phosphorylated p38 MAPK protein level at 1 to 10 uM in presence of glutamate by Western blot analysis; type: cell-based; conditions: dose 1-10 µM
HT-22 [9] = experiment: Inhibition of glutamate-induced apoptosis in mouse HT-22 cells assessed as reduction in Bax protein level at 1 to 10 uM incubated for 10 hrs in presence of glutamate by Western blot analysis; type: functional, cell-based; conditions: dose 1-10 µM
HT-22 [10] = experiment: Inhibition of glutamate-induced apoptosis in mouse HT-22 cells assessed as increase in Bcl2 protein level at 1 to 10 uM incubated for 10 hrs in presence of glutamate by Western blot analysis; type: functional, cell-based; conditions: dose 1-10 µM
HT-22 [11] = experiment: Inhibition of glutamate-induced AIF nuclear translocation in mouse HT-22 cells assessed as decrease in translocation of AIF from mitochondria to nucleus at 1 to 10 uM in presence of glutamate by Western blot analysis; type: functional, cell-based; conditions: dose 1-10 µM
HT-22 [12] = experiment: Inhibition of glutamate-induced apoptosis in mouse HT-22 cells assessed as early apoptotic cells at 0.2 uM pretreated with glutamate for 2 hrs followed by incubation with compound for 8 hrs by Annexin-V FITC and propidium iodide staining based flow cytometric analysis (reference value: 71.33%); type: functional; design: scale not given: the % may be the effect or the level left
HT-22 [13] = experiment: Inhibition of glutamate-induced apoptosis in mouse HT-22 cells assessed as late apoptotic cells at 0.2 uM pretreated with glutamate for 2 hrs followed by incubation with compound for 8 hrs by Annexin-V FITC and propidium iodide staining based flow cytometric analysis (reference value: 6.49%); type: functional; design: scale not given: the % may be the effect or the level left
HT-22 [14] = experiment: Inhibition of glutamate-induced apoptosis in mouse HT-22 cells assessed as necrotic cells at 0.2 uM pretreated with glutamate for 2 hrs followed by incubation with compound for 8 hrs by Annexin-V FITC and propidium iodide staining based flow cytometric analysis (reference value: 0.79%); type: functional; design: scale not given: the % may be the effect or the level left
HT-22 [15] = experiment: Inhibition of glutamate-induced apoptosis in mouse HT-22 cells assessed as early apoptotic cells at 1.85 uM pretreated with glutamate for 2 hrs followed by incubation with compound for 8 hrs by Annexin-V FITC and propidium iodide staining based flow cytometric analysis (reference value: 71.33%); type: functional; design: scale not given: the % may be the effect or the level left
HT-22 [16] = experiment: Inhibition of glutamate-induced apoptosis in mouse HT-22 cells assessed as late apoptotic cells at 1.85 uM pretreated with glutamate for 2 hrs followed by incubation with compound for 8 hrs by Annexin-V FITC and propidium iodide staining based flow cytometric analysis (reference value: 6.49%); type: functional; design: scale not given: the % may be the effect or the level left
HT-22 [17] = experiment: Inhibition of glutamate-induced apoptosis in mouse HT-22 cells assessed as necrotic cells at 1.85 uM pretreated with glutamate for 2 hrs followed by incubation with compound for 8 hrs by Annexin-V FITC and propidium iodide staining based flow cytometric analysis (reference value: 0.79%); type: functional; design: scale not given: the % may be the effect or the level left
HT-22 [18] = experiment: Inhibition of glutamate-induced apoptosis in mouse HT-22 cells assessed as viable cells at 1.85 uM pretreated with glutamate for 2 hrs followed by incubation with compound for 8 hrs by Annexin-V FITC and propidium iodide staining based flow cytometric analysis (reference value: 21.39%); type: functional; conditions: read-out: Activity
HT-22 [19] = experiment: Inhibition of glutamate-induced apoptosis in mouse HT-22 cells assessed as viable cells at 0.2 uM pretreated with glutamate for 2 hrs followed by incubation with compound for 8 hrs by Annexin-V FITC and propidium iodide staining based flow cytometric analysis (reference value: 21.39%); type: functional; conditions: read-out: Activity
HT-22 [20] = experiment: Neuroprotective activity against glutamate-induced cytotoxicity in mouse HT-22 cells assessed as reduction in cell death and morphological changes at 0.6 to 1.8 uM incubated for 12 hrs in presence of glutamate by phase contrast microscopic analysis; type: functional, cell-based; conditions: dose 0.6-1.8 µM
HT-22 [21] = experiment: Neuroprotective activity against glutamate-induced cytotoxicity in mouse HT-22 cells assessed as reduction in cell death pretreated with glutamate followed by incubation with compound for 6 hrs and measured at 16 hrs post-glutamate treatment; type: functional, cell-based
HT-22 [22] = experiment: Neuroprotective activity against glutamate-induced cytotoxicity in mouse HT-22 cells assessed as reduction in cell death pretreated with glutamate followed by incubation with compound for 8 hrs and measured at 16 hrs post-glutamate treatment; type: functional, cell-based
RGC-5 = experiment: Cytoprotective activity against glutamate-induced cytotoxicity in rat RGC-5 cells assessed as reduction in cell death; type: functional, cell-based
[23] = Antioxidant activity assessed as DPPH radical scavenging activity; type: functional
[24] = Inhibition of glutamate-induced Ca2+ influx in mouse HT-22 cells assessed as reduction in intracellular Ca2+ concentration at 0.6 to 1.8 uM in presence of glutamate by Fluo3-AM staining based fluorescence microscopic method relative to control; type: functional; conditions: dose 0.6-1.8 µM
HT-22 [25] = experiment: Inhibition of glutamate-induced AIF nuclear translocation in mouse HT-22 cells assessed as decrease in translocation of AIF from mitochondria to nucleus in presence of glutamate by immunostaining analysis; type: functional, cell-based

SMILES: CCCCCCCc1[nH]c2ccccc2c(=O)c1O
- Activity (HT-22 [1]): Active
- Activity (HT-22 [2]): inactive
- inhibition (HT-22 [3]): Active
- inhibition (HT-22 [4]): Active
- inhibition (HT-22 [5]): Dose-Dependent Effect
- inhibition [6]: Active
- inhibition (HT-22 [7]): Active
- inhibition [8]: Active
- inhibition (HT-22 [9]): Active
- inhibition (HT-22 [10]): Active
- inhibition (HT-22 [11]): Active
- Activity (HT-22 [12]): 55.26%
- Activity (HT-22 [13]): 5.51%
- Activity (HT-22 [14]): 1.74%
- Activity (HT-22 [15]): 0.44%
- Activity (HT-22 [16]): 1.06%
- Activity (HT-22 [17]): 0.44%
- viability at 1.85 µM (HT-22 [18]): 98.1%
- viability at 0.2 µM (HT-22 [19]): 37.5%
- Activity (HT-22 [20]): Active
- Activity (HT-22 [21]): Active
- Activity (HT-22 [22]): inactive
- Activity (RGC-5): Active
- Activity [23]: Dose-Dependent Effect
- fold change (FC) [24]: 0.98
- inhibition (HT-22 [25]): Active
